Several values for one entry are separate records, joined by “and”; a condition that tells them apart may be missing. Equal values may be shown once.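 Assay format: 96-well plates, 48-hour exposure. GI50 = concentration required for 50% inhibition of growth. TGI: concentration producing complete growth inhibition.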

Holding throughout (test): NCI tumour cell line growth inhibition, 48 h
For assay [1], the system named is HOP-18 NSCLC.
Assay [2] concerns SNB-78 CNS.
The subject of assay [3] is RXF-631 renal.
Assay [4] relates to DLD-1 colon.
Assay [5] concerns DMS 114 small cell lung.
The subject of assay [6] is LXFL 529 NSCLC.
Assay [7] deals with XF 498 CNS.
In assay [8] the test system is DMS 273 small cell lung.
Assay [9] has as its system P388/ADR leukemia.
The subject of assay [10] is P388 leukemia.
Assay [11] concerns MDA-N.

For the compound `CC(C)(C)c1cc(CCC(=O)Nc2ccc(Cl)cc2Cl)nc(N)n1`, the TGI in [1], in assay [2], in [3], in [4], in assay [5] and in assay [6] was over 100 µM each time.
With `C=CC1=CC(C)C[C@]1(O)C(=O)OC` (stereo partly specified), the TGI in assay [1] and in assay [2] was over 100 µM in each case. Also, the GI50 is over 100 µM in [7]; over 100 µM in assay [3]; over 100 µM in assay [8]; over 100000 nM in assay [4]; over 100 µM in assay [5]; over 100000 nM in assay [6].
Regarding `Cc1nnc(N=Nc2c(O)[nH]c3ccccc23)n1N`, the TGI in assay [1], in assay [2], in [7], in assay [3], in assay [8] and in [4] was over 100 µM each time. The TGI in assay [5] and in [6] was over 100 µM each time.
Regarding `CC1=C(C(=O)CC(=O)C(=O)NC2C3CC4CC(C3)CC2C4)Sc2ccccc2N1` (stereo unspecified), the TGI was over 100 µM in [1]; over 100 µM in assay [2]; over 100 µM in assay [7]; over 100 µM in [8]; over 100 µM in assay [4]; over 31.6 µM in assay [5]. Further, the TGI in assay [6] was over 100 µM.
On to `CCCCCCCCCC(=O)Oc1cccc2onc(C)c12`, for which the TGI in [1], in assay [2], in [3], in [8], in assay [4] and in [5] was over 100 µM throughout. The TGI in assay [6] was over 100 µM.
On to `CC[C@@]1(O)C(=O)OCc2c1cc1n(c2=O)Cc2cc3c(N)cccc3nc2-1`, for which the TGI is 7.64 µM in assay [1]; over 100 µM in assay [2]; 1.05 µM in [7]; 1.69 µM in [3]; 0.111 µM in [8]; 375 nM in assay [9]. Besides, the TGI is over 51.7 µM in assay [4]; 0.121 µM in assay [5]; 2.98 µM in assay [6]; 300 nM in [10]; over 33.8 µM in assay [11]. Further, in assay [11], the GI50 was 333 nM.
Turning to `Cc1ccccc1NC(=O)C(=O)CC(=O)c1ccc([N+](=O)[O-])cc1`, the TGI in assay [1], in [2], in [7], in assay [3], in assay [8] and in assay [4] was over 100 µM throughout. Further, the TGI in [5] and in assay [6] was over 100 µM each time.
Turning to `CCOC(=O)C[C@@]12CCCNC1(C)CCc1ccccc12` (stereo partly specified), the TGI in assay [1], in [7], in assay [8], in assay [4] and in assay [5] was over 100 µM throughout.
For the compound `CC(=O)[CH-]C(=O)c1ccccc1.CC(=O)[CH-]C(=O)c1ccccc1.[CH2-]CCC.[CH2-]CCC.[Sn+4]`, in assay [6], the GI50 is 198 nM and the TGI came to 0.627 µM.
With `C[N+](C)=c1nc(N2CCOCC2)ss1`, the TGI in assay [2], in assay [7], in assay [8] and in assay [6] was over 100 µM each time.
For `C/C(=N/NC(=O)CC(=O)N(C(=O)c1ccccc1Cl)c1ccc(C)cc1)c1cc2ccccc2oc1=O`, the TGI in [1], in assay [2], in [7], in assay [3], in assay [8] and in assay [4] was over 100 µM in each case. Besides, the TGI in assay [5] and in assay [6] was over 100 µM throughout.
For `O=C(O)[C@@H]1CCCC[C@@H]1C(=O)N(C1CCCCC1)C1CCCCC1`, the TGI in [2], in [3], in assay [8], in assay [4], in [5] and in [6] was over 100 µM throughout.
In the case of `COc1ccc(CC2=NCCc3cc(OC)c(OC)cc32)cc1Br`, the TGI is over 100 µM in [1]; over 100 µM in assay [2]; 53.1 µM in assay [7]; 33.7 µM in assay [8]; over 100 µM in assay [4]; 48.3 µM in assay [5]. In assay [6], this compound yielded a TGI of over 100 µM.
`O=C(O)C1C2C=CC(O2)C1C(=O)Nc1ncccn1` (stereo unspecified): the TGI in [11] is over 100 µM.
In the case of `CC1(C)CC(=O)c2c(oc3cc(O)c(O)cc23)C1`, the TGI in assay [1] is over 100 µM; in assay [2], over 100 µM; in assay [3], over 100 µM; in [8], over 100 µM; in [4], 53.9 µM; in assay [5], 32.5 µM. In [6], this compound had a TGI of 91.8 µM.
On to `NC(=O)C(=O)n1ncc(Cl)c(Cl)c1=O`, for which the TGI was 35.1 µM in assay [1]; 49.8 µM in assay [2]; 31.6 µM in assay [7]; over 100 µM in assay [8]; 47.7 µM in assay [4]; 36.6 µM in [5]. Besides, the TGI in assay [6] is 29 µM; in assay [11] it was over 100 µM.
Consider `Cc1ccc(/C=C2\CNC/C(=C\c3ccc(C)cc3)C2=O)cc1`, for which the TGI was over 100 µM in assay [2]; 5.16 µM in assay [7]; 2.49 µM in [8]; 1.2 µM and 2.32 µM in assay [4]; 4.98 µM in assay [5]; 2.71 µM and 2.17 µM in [6]. In addition, the TGI in assay [11] came to 3.53 µM. The GI50 in assay [4] was 916 nM; in assay [6], 819 nM.
Turning to `c1ccc(NC[Si]23OCCN(CCO2)CCO3)cc1`, the TGI in assay [1], in assay [2], in assay [3], in assay [8], in [4] and in assay [5] was over 100 µM in each case. In assay [6], this compound came in with a TGI of over 100 µM.
Take `COc1ccc2[nH]c3c(=O)[nH]ncc3c2c1`: the TGI in [1], in assay [2], in [8], in assay [4], in assay [5] and in [6] was over 100 µM in each case.
On to `NC(=O)c1c[se]c(C2OC(COP(=O)(O)CP(=O)(O)OCC3OC(n4cnc5c(N)ncnc54)C(O)C3O)C(O)C2O)n1` (stereo unspecified), for which the TGI in assay [1], in [2], in assay [7], in assay [8], in assay [4] and in assay [5] was over 100 µM each time. In [6], this compound came in with a TGI of over 100 µM.
Take `O=C1C(c2ccccc2)=C(c2ccccc2)[C@H](c2ccccc2)[C@]1(Cc1nnn(-c2ccc([N+](=O)[O-])cc2)c1N1CCOCC1)c1ccccc1`: the TGI was over 37.5 µM in assay [1]; over 37.5 µM in assay [2]; 26.5 µM in assay [7]; over 37.5 µM in assay [3]; over 37.5 µM in assay [8]; over 37.5 µM in assay [4]. Also, the TGI in assay [5] and in [6] was over 37.5 µM in each case.
Consider `COC(=O)C1(F)C(=O)NC(=O)NC1OC` (stereo unspecified), for which the TGI in assay [1], in assay [2], in assay [7], in assay [8], in assay [4] and in [5] was over 100 µM throughout.
For the compound `Cc1cc(NC(=O)NC(=O)c2ccccc2N(C)C)ccc1Oc1ncc(Br)cn1`, the TGI was over 100 µM in assay [1]; over 100 µM in assay [2]; over 100 µM in assay [4]; over 100 µM in assay [6]; 0.281 µM in assay [11]. For the same compound, the GI50 was 0.894 µM in assay [7], 527 nM in [4], 0.478 µM in assay [5] and 658 nM in [6].
In the case of `CC[P+]1(CC)CCCC1`, the TGI in assay [1], in [2], in [7], in assay [8], in [4] and in assay [5] was over 100 µM in each case. Besides, in [6], the TGI was over 100 µM.
Consider `COc1cc(O)c(C(C)=O)c(O)c1`, for which the TGI in assay [11] was over 100 µM.
With `CC(C)(CO)N=Cc1ccccc1[O-].CC(C)(CO)N=Cc1ccccc1[O-].[Co+2]`, the GI50 in assay [1] was 29.4 µM; in assay [2], over 100 µM; in assay [7], over 100 µM; in assay [8], over 85.9 µM; in [4] it was 26600 nM; in [5], 18.7 µM. In addition, the GI50 in [6] was 19200 nM. Further, the TGI in assay [1], in assay [2], in [7], in [8], in assay [4] and in [5] was over 100 µM in each case. The TGI in [6] is over 100 µM.
As to `NS(=O)(=O)c1ccc(NC(=O)c2cccn3c(=O)c4ccccc4nc23)cc1`, the TGI in [1], in assay [2], in assay [7], in assay [3], in [4] and in assay [5] was over 100 µM each time. The same compound displayed a TGI in [6] of over 100 µM.
As for `COc1cc([C@H]2c3[nH]c4ccccc4c3C[C@H]3COC(=O)N32)cc(OC)c1O`, the TGI in assay [1] was over 100 µM; in assay [2] it was over 100 µM; in assay [7], 43 µM; in assay [8] it was 44.2 µM; in assay [4] it was over 100 µM.
`COC(=O)c1cc2c3c(ccc2[nH]1)N(C(=O)c1cc2c4c(ccc2[nH]1)N(C(=O)c1cc2c5c(ccc2[nH]1)N(C(N)=O)CC5)CC4)CC3`: the TGI in [1] was over 100 µM; in [2] it was over 100 µM; in [8] it was over 100 µM; in [4], over 100 µM; in assay [5] it was 57.3 µM.
Turning to `CC1(C)OC(COCCOCCCCCO)C(COCCOCCCCCO)O1` (stereo unspecified), the TGI in [1], in assay [2], in assay [3], in assay [8], in [4] and in assay [5] was over 100 µM throughout. The compound also displayed a TGI in assay [6] of over 100 µM.
In the case of `C[C@@]12CCCC(=O)N1[C@@H](CO)C(c1ccccc1)O2` (stereo partly specified), the TGI in [1], in assay [2], in assay [7], in assay [8], in [4] and in assay [5] was over 100 µM each time.
For `CC(C)(C)[Si](C)(C)OCC1OC(n2cnc3c(N)ncnc32)C(O)C1O` (stereo unspecified), in [11], the TGI is over 100 µM.
On to `COc1ccc(/C=C/C(=O)C(C)(C)Br)cc1`, for which the TGI in assay [11] was found to be 39.4 µM.
As to `O=[N+]([O-])C1C2C=CC(C2)[C@H]1c1ccc(Cl)cc1Cl` (stereo partly specified), the TGI in assay [2], in [7], in [8], in assay [4] and in assay [6] was over 100 µM throughout.
With `COc1nc2c(c(O)c(C)c(=O)n2OC2OC(COC(C)=O)C(OC(C)=O)C(OC(C)=O)C2OC(C)=O)c(=O)n1C` (stereo unspecified), the TGI in assay [2], in [7], in assay [3], in assay [8], in assay [4] and in assay [5] was over 100 µM in each case. In assay [6], this compound yielded a TGI of over 100 µM.
Compound `O=C(O)Cn1ccnc1[N+](=O)[O-]` gave a TGI in [11] of over 100 µM.
As to `COc1ccc(C2NCCc3c2[nH]c2ccccc32)cc1` (stereo unspecified), the TGI in [1], in assay [7], in [3], in [4] and in assay [6] was over 100 µM each time.
In assay [11], `CCCCCCCCCCCCCCCCS(=O)(=O)c1ccc(NN)cc1` gave a TGI of over 10 µM.
As for `CC(=O)OCCC(O[Si](c1ccccc1)(c1ccccc1)C(C)(C)C)C(C)(C)O` (stereo unspecified), the TGI was 91.4 µM in assay [1]; over 100 µM in assay [2]; 96.8 µM in assay [7]; over 100 µM in assay [3]; over 100 µM in assay [8]; 53.6 µM in [5]. For the same compound, the TGI in assay [6] is over 100 µM.

Source of the values: PubChem BioAssay (NCI).
